Measured values from patent US9943500B2, “Methods of treating topical microbial infections” (LUODA PHARMA PTY LIMITED, priority 2013, dated 2018).
In brackets after ≈: the same amount, converted by molar mass.

Assays:
[1] = system: 51 Australian bovine mastitis isolates, primarily S. aureus, S. agalactiae and S. uberis; test: Minimum inhibitory concentration assay, bovine mastitis isolates (Example 3); assay type: cell-based; details: all 51 isolates; read-out: MIC90
Text: Fifty-one dairy bovine mastitis isolates, encompassing a variety of bacterial species, were isolated from milk samples collected from dairy farms in rural South Australia by the University of Adelaide Ambulatory Clinic. Cellular morphology observed from Gram stains and catalase testing was used to differentiate Staphylococcus, Streptococcus and Corynebacterium species from Gram-negative species. Further biochemical testing including coagulase, Lancefield grouping, esculin hydrolysis and CAMP tests were used to identify the isolates to species level. Where biochemical test results were not definitive in identifying species, amplification and sequencing of the 16S ribosomal RNA gene was used to confirm the identity of the isolates.
Minimum inhibitory concentration tests were performed in the manner outlined by the CLSI (CLSI 2012). Test compounds were dispensed into a 96-well microtitre tray containing 90 μl of CAMHB in 90 μl volumes and serial diluted to obtain a concentration gradient ranging from 128 μg/ml to 0.25 μg/ml (see FIG. 24). For Streptococcus species, CAMHB was replaced with a CAMHB supplement with 4% lysed-sheep blood (4% LSB:CAMHB). 4% LSB:CAMHB was prepared by mixing 5 ml sheep blood to 5 ml milliQ water, and repeated freezing at −20° C. and thawing, followed by centrifuged for 20 min at 7000 rpm. 7 ml of the supernatant was removed and added to 93 mL of CAMB.
Bacterial suspensions were prepared by emulsifying fresh colonies obtained from an overnight culture on Sheep Blood Agar (SBA) in 4 mls of 9.1 g/l physiological saline to an optical density read at 600 nm (OD600 nm) between 1.00 and 1.20. Standardised bacterial suspensions were diluted 1:10 in physiological saline and dispensed into all wells, excluding the negative control wells, in 10 μL volumes giving a final concentration of between 4×10^5 and 5×10^5 CFU/mL in each well. 96-well microtitre trays were incubated for 24 hours at 37° C. in 5% CO2 and then assessed both visually and using OD readings from a microplate reader at a wavelength of 600 nm. These tests were performed in duplicate and repeated if discrepancies in MIC values were observed between replicates.
The minimum inhibitory concentration (MIC) was determined to be the lowest concentration of antibiotic that prevented growth of bacteria both visually and using OD readings. MIC values were collated and used to determine the lowest concentration of each compound effective against 50% and 90% of isolates, known as the MIC50 and MIC90 respectively. These values as well as the range of MIC values were then used for direct comparisons between test compounds and for general comparisons with ampicillin.

[2] = system: ATCC 49775 reference strain; test: Macrodilution time-kill assay (viable counts); details: 24 hours; all concentrations tested
Description: Due to the detection limit of the OD measurements, the time-kill assays were also performed in macrodilution. In 15 mL tubes, 9 mL volumes of the test compounds in CAMHB were prepared at one, four and eight times the MIC concentration and 9 mL volumes of ampicillin were prepared in CAMHB at one and four times the MIC. 1 mL of a 4 to 5×10^6 bacterial suspension (as prepared for MIC testing) was added to each of the tubes as well as a growth control tube containing only 9 mL of CAMHB. These tubes were incubated at 37° C. in an orbital shaker rotating at 100 rpm for 24 hours. At 0, 1, 4, 8, 12 and 24 hours after addition of the bacteria, 100 μL samples were removed from each tube and serial diluted in 9.1 g/L saline solution. The dilutions were then plated in duplicate onto plate count agar and incubated for 24 hours at 37° C. After incubation, viable counts were obtained from the number of colonies visible on the agar and these were used to calculate the number of CFU/mL at each time point. For the macrodilution time-kill analysis, only the ATCC 49775 reference strain and MRSA 9 were assessed in order to further investigate the antibacterial activity against methicillin-resistant strains. These macrodilution time-kill assays were independently repeated and bactericidal activity was defined as a ≥3 log decrease in the number of CFU/mL.

[3] = system: red blood cells; test: Eukaryotic cell toxicity testing, erythrocyte haemolysis; assay type: cell-based; details: 2% blood cell solution, one hour at 37° C.
Description: Erythrocyte haemolysis was used in order to test the toxicity of all five compounds to eukaryotic cells. Blood samples were washed using 9.1 g/L saline solution and centrifuged at 2500 rpm for 10 minutes. This process was repeated until cellular debris and partially lysed cells were removed from solution. 2 mL of the remaining blood cells were suspended in 98 mL of 9.1 g/L saline solution to produce a 2% blood cell solution, which was dispensed in 90 μL volumes into the wells of a 96 well plate. The compound solutions as well as chloramphenicol were prepared from stock solution to a concentration of 256 μg/mL (as described above). Chloramphenicol was used as a negative control for erythrocyte lysis while a ready to use solution of amphotericin B was used as a positive control. 90 μL of the compounds and controls were added to the final well in different rows. These compounds were serially diluted across the row in order to test the different concentrations of antimicrobials. Wells containing only 2% blood solution were also used to assess variation between readings from different columns on the 96 well plates. These tests were incubated at 37° C. for one hour and then assessed for lysis both visually and using a microplate reader to measure optical density at 600 nm wavelengths. Each test was performed in duplicate and then repeated in quadruplicate in order to ensure accuracy.

## CC[C@@H](C(=O)[C@@H](C)[C@@H](O)[C@H](C)CCc1ccc(C)c(O)c1C(=O)O)[C@H]1O[C@](CC)([C@H]2CC[C@](O)(CC)[C@H](C)O2)C[C@@H]1C [LP 1369, Lasalocid]
[1]
  MIC90: 4 µg/mL (≈ 6.77 µM)
[2]
  decrease in the number of viable bacteria: < 3 log10
[3]
  concentration at which lysis was most visually evident: 64000 ng/mL
  concentration range in which some lysis of cells was observed: 32000 to 128000 ng/mL
